Assay results from article PMC4018225 (Biopharmaceutics & drug disposition, 2013).
Like-named read-outs stand apart in the source and are kept apart here. Marks after values point to notes of the source that are not given here.

How the values were obtained:
[1] = nonHIV tx, cited from earlier work
[2] = Reference pharmacokinetics of CsA and TAC in nonHIV transplant patients; format: in vivo, human; settings: nonHIV tx; average for both PI time periods
[3] = format: in vivo, human; settings: for AUC (weight and dose normalized) / TAC V/F: median [IQR]; for CL/F: human, whole blood, oral
[4] = HIV-1 infected volunteers; concomitant use of EFV or NVP; cited from earlier work
[5] = HIV infected subjects compared to healthy volunteers; cited from earlier work
[6] = co-medication EFV, wk 28, 52, 104
[7] = co-medication NVP, wk 28, 52, 104

For `C=CC[C@@H]1/C=C(\C)C[C@H](C)C[C@H](OC)[C@H]2O[C@@](O)(C(=O)C(=O)N3CCCC[C@H]3C(=O)O[C@H](/C(C)=C/[C@@H]3CC[C@@H](O)[C@H](OC)C3)[C@H](C)[C@@H](O)CC1=O)[C@H](C)C[C@@H]2OC` [TAC, tacrolimus], the “TAC CL/F” value [1] is listed as 5.83 mL/min/kg, the “TAC CL/V” value [1] is listed as 0.058 h⁻¹ and the “TAC V/F” value [1] is listed as 6 L/kg. The “AUC (weight and dose normalized)” value ([1]; wks 2–12) was 2000 to 5000 ng·h/mL/mg/kg, the “AUC (weight and dose normalized)” value ([1]; wks 28–104) was 2000 to 5000 ng·h/mL/mg/kg and the “TAC CL/F Ratio to PI” value [2] was “(10.1) ^*”. For the same molecule, the “TAC CL/V Ratio to PI” value [2] was “(1.6) ^*”, the “TAC V/F Ratio to PI” value [2] was “(6.2) ^*” and the “AUC (weight and dose normalized)” value ([3]; +EFV, wks 2–12) was 2170 [936–3261] ng*hr/mL/mg/kg. For the same molecule, the “AUC (weight and dose normalized)” value ([3]; +EFV, wks 28–104) was 1911 [1423–3071] ng*hr/mL/mg/kg, the “AUC (weight and dose normalized)” value ([3]; +NVP, wks 2–12) was 3644 [3115–5157] ng*hr/mL/mg/kg and the “AUC (weight and dose normalized)” value ([3]; +NVP, wks 28–104) was 4220 [2703–6229] ng*hr/mL/mg/kg. The “AUC (weight and dose normalized)” value ([3]; +PI, wks 2–12) was 24996 [18205–41601] ng*hr/mL/mg/kg, the “AUC (weight and dose normalized)” value ([3]; +PI, wks 28–104) was 34653 [17208–42250] ng*hr/mL/mg/kg and the “TAC CL/F Ratio to PI” value [3, 6] was 18.1. The “TAC CL/V” value [3, 6] was 0.068 h⁻¹, the “TAC CL/V Ratio to PI” value [3, 6] was 2.33 and the “TAC V/F Ratio to PI” value [3, 6] was 7.78. The “TAC V/F” value [3, 6] was 7.70 [6.22–10.70] L/kg, the “TAC CL/F Ratio to PI” value ([3]; co-medication EFV, wks 2–12) was 11.5 and the “TAC CL/V” value ([3]; co-medication EFV, wks 2–12) was 0.074 h⁻¹. The “TAC CL/V Ratio to PI” value ([3]; co-medication EFV, wks 2–12) was 1.72, the “TAC V/F Ratio to PI” value ([3]; co-medication EFV, wks 2–12) was 6.66 and the “TAC V/F” value ([3]; co-medication EFV, wks 2–12) was 6.26 [5.42–10.91] L/kg. The “TAC CL/F Ratio to PI” value [3, 7] was 8.72, the “TAC CL/V” value [3, 7] was 0.031 h⁻¹ and the “TAC CL/V Ratio to PI” value [3, 7] was 1.07. For the same molecule, the “TAC V/F Ratio to PI” value [3, 7] was 8.17, the “TAC V/F” value [3, 7] was 8.09 [3.46–15.14] L/kg and the “TAC CL/F Ratio to PI” value ([3]; co-medication NVP, wks 2–12) was 6.85. The “TAC CL/V” value ([3]; co-medication NVP, wks 2–12) was 0.056 h⁻¹, the “TAC CL/V Ratio to PI” value ([3]; co-medication NVP, wks 2–12) was 1.31 and the “TAC V/F Ratio to PI” value ([3]; co-medication NVP, wks 2–12) was 5.20. For the same molecule, the “TAC V/F” value ([3]; co-medication NVP, wks 2–12) was 4.89 [2.74–6.16] L/kg, the “TAC CL/F Ratio to PI” value ([3]; co-medication PI, wk 28, 52) was 1 and the “TAC CL/V” value ([3]; co-medication PI, wk 28, 52) was 0.029 h⁻¹. The “TAC CL/V Ratio to PI” value ([3]; co-medication PI, wk 28, 52) was 1, the “TAC V/F Ratio to PI” value ([3]; co-medication PI, wk 28, 52) was 1 and the “TAC V/F” value ([3]; co-medication PI, wk 28, 52) was 0.99 [0.31–1.19] L/kg. The “TAC CL/F Ratio to PI” value ([3]; co-medication PI, wks 2–12) was 1, the “TAC CL/V” value ([3]; co-medication PI, wks 2–12) was 0.043 h⁻¹ and the “TAC CL/V Ratio to PI” value ([3]; co-medication PI, wks 2–12) was 1. The “TAC V/F Ratio to PI” value ([3]; co-medication PI, wks 2–12) was 1, the “TAC V/F” value ([3]; co-medication PI, wks 2–12) was 0.94 [0.64–1.29] L/kg and the CL/F ([3]; 0.003 mg/kg) was 0.483 mL/min/kg. The CL/F ([3]; 0.007 mg/kg) was 0.667 mL/min/kg, the CL/F ([3]; 0.046 mg/kg) was 8.77 mL/min/kg and the CL/F ([3]; 0.058 mg/kg) was 7.68 mL/min/kg. The “TAC apparent volume of distribution ratio, PI compared to EFV” value ([3]; in vivo) was 0.15, the “TAC apparent volume of distribution ratio, PI compared to NVP” value ([3]; in vivo) was 0.19 and the “increase in drug exposure on concomitant administration with PIs” value ([3]; in vivo) was 2–50 fold. For the same molecule, the “increase in exposure (AUC/dose) in the presence of PIs relative to NNRTIs” value ([3]; in vivo) was “more than 10 fold”, the “TAC CL/F ratio, PI compared to EFV” value ([3]; weeks 2–12) was 0.09 and the “TAC CL/F ratio, PI compared to NVP” value ([3]; weeks 2–12) was 0.15.
For `Cc1cccc(C)c1OCC(=O)N[C@@H](Cc1ccccc1)[C@@H](O)C[C@H](Cc1ccccc1)NC(=O)[C@H](C(C)C)N1CCCNC1=O` [lopinavir], the “increase in apparent oral clearance” value [4] is listed as 39%.
For `Cc1ncc2n1-c1ccc(Cl)cc1C(c1ccccc1F)=NC2` [midazolam], the decrease in clearance [5] is given as ~ 50%.
